Columns and labels:
[1] = target: T1, human GHS-R 1a (Homo sapiens, UniProt Q92847); test: GHS-R 1a receptor-ligand binding assay (membrane preparations from transfected LLC PK-1 cells); set-up: expressed in transfected cells; details: displacement of 125I-His9-ghrelin; plasma membranes of LLC PK-1 cells transiently transfected with human GHS-R 1a; mean of at least two independent experiments in triplicates
Protocol: II) GHS-R 1a Receptor-Ligand Binding Assay (Membrane Preparations from Transfected LLC PK-1 Cells)
The GHS-R 1a receptor binding/affinity studies were performed according to Guerlavais et al. (J. Med. Chem. 2003, 46: 1191-1203).
Isolated plasma membranes from LLC PK-1 cells, a renal epithelial cell line originally derived from porcine kidneys (ECACC No. 86121112) (10 μg of protein), that were transiently transfected with human GHS-R 1a cDNA (Guerlavais et al., J. Med. Chem. 2003, 46: 1191-1203), were incubated in homogenization buffer HB [50 mM Tris (pH 7.3), 5 mM MgCl2, 2.5 mM EDTA, and 30 μg/mL bacitracin (Sigma)] for 60 min at 25° C. (steady-state conditions) with […] ^125I-His^9-ghrelin (Amersham) in the presence or absence of competing compounds (compounds of the invention).
Nonspecific binding was defined using an excess (10^−6 M) of ghrelin. The binding reaction was stopped by addition of 4 mL of ice-cold HB followed by rapid filtration over Whatman GP/C filters presoaked with 0.5% polyethyleneimine to prevent excessive binding of radioligand to the filters. Filters were rinsed three times with 3 mL of icecold wash buffer [50 mM Tris (pH 7.3), 10 mM MgCl2, 2.5 mM EDTA, and 0.015% (w/v) X-100 Triton], and the radioactivity bound to membranes was measured in a gammacounter (Kontron Analytical Gamma Matic, Automatic gamma counting system).
The concentration of test compounds required to inhibit radiolabelled ghrelin binding by 50% (IC50) was determined by fitting competitive binding curves using non-linear regression (PRISM 3.0, Graph Pad San Diego, USA).
In the following table 2 results obtained for selected compounds of the invention are presented in comparison to an example of the prior art. IC50 values given are the mean of at least two independent experiments performed in triplicates.

[2] = target: T1, human GHS-R 1a; test: In vitro intracellular calcium release assay using human GHS-R 1a transfected CHO cells; type: cell-based; set-up: expressed in transfected cells; host or cells: CHO-K1 Chinese hamster ovary cells (ATCC No. CCL-61), transient transfection by electroporation; details: for EC50: agonists, dose-response curve of intracellular calcium release; for activation at 1 µM: intracellular calcium release, compound at 10^-6 M, relative to basal level (0%) and 1 μM ghrelin (100%)
Protocol: The ability to properly activate the receptors is assessed for any compound of the invention by comparing the degree of activation (increase of intracellular calcium) of GHS-R 1a by the compound to be tested (at 10^−6 M concentration) to the degree of activation (increase of intracellular calcium) of GHS-R 1a by 10^−6 M ghrelin (100%) and to the basal level (0%). Such assessment can be readily performed by the skilled artisan due to his expert knowledge. The output is a percentage value for each compound to be tested. […]
III) In Vitro Intracellular Calcium Release Assay Using Human GHS-R 1a Transfected CHO Cells
The potential of the compounds of the invention to modulate GHS receptor activity was assessed by an in vitro intracellular Calcium release assay employing CHO cells that were transfected with human GHS-R 1a.
Release of intracellular calcium or inhibition thereof was measured using the fluorescent calcium indicator assay (FLIPR) and Fluo-4 AM.
CHO cells (CHO-KI Chinese Hamster Ovary cell line, ATCC No. CCL-61) were transiently transfected with human GHS-R 1a cDNA by electroporation and plated into 96-well black bottom plates (Corning 3603) (80,000 cells/well). Transient transfections were performed using the Easyject Optima Electroporator (Equibio), according to the manufacturer's instructions.
Transfected cells were grown in Dulbecco's modified Eagle's medium without phenol red, supplemented with 10% (v/v) non-essential amino acids, […] glutamine and streptomycin-penicillin (250 μg/ml-250 u/ml) (all purchased from Cambrex) at 37° C., 5% CO2 in a humidified atmosphere for 24 hours.
After incubation, transfected cells were washed with 150 μl Buffer A [Hanks' balanced salt solution (Sigma H-6648), 0.5% (v/v) BSA (Sigma A-7906), 20 mM CaCl2, 2.5 mM probenecid (pH 7.4, dissolved in 1 M NaOH) (Sigma P-8761)] and were then loaded with fluorescent calcium indicator Fluo-4 AM (10^−6 M) (Interchim UP72972) prepared in Buffer A, additionally containing 0.06% pluronic acid (Molecular probes P-6867) (a […] detergent which facilitates Fluo-4AM ester loading). (Loading: 100 μl per well of Buffer A containing 120 μl/ml Pluronic Acid and 1 μM Fluo-4AM was added to the cells).
After loading with Fluo-4 AM, transfected cells were incubated for 1 hour in the dark at 37° C.
Compounds to be tested were dissolved in Buffer A in triplicates at a concentration of 10^−6 M and distributed into another 96-well plate (Fisher Labosi A1210500).
Following incubation, excess Fluo-4AM was removed, 100 μl of Buffer A was added to each well at room temperature and immediately removed by aspiration. This was then repeated, before adding 50 μl Buffer A to each well.
Transfected cells were further incubated room temperature for 30 min to allow complete de-esterification of intracellular Fluo-4AM esters.
Subsequently, both plates, the black-bottom plate containing transfected cells and the microtiter plate containing the compounds to be tested, were then placed into a temperature-regulated (25° C.) FlexStation machine (benchtop scanning fluorometer Flex Station II, Molecular Devices, Sunnyvale, Calif., USA) for fluorescence output measurements.
Basal fluorescence output from the transfected cells was measured for 15 sec and then 50 μl of the compounds to be tested were automatically distributed into the wells containing the transfected cells. The fluorescence output was then recorded for a further 45 sec.
Excitation and emission wavelengths were 485 nm and 525 nm, respectively. Basal fluorescence intensity of Fluo-4AM-loaded transfected cells without compounds to be tested varied between 800-1200 arbitrary units, whereas maximal fluorescence output of dye-loaded transfected cells upon incubation with the compounds to be tested varied between 5000-7000 arbitrary units and was equivalent to that achieved by stimulation of dye-loaded transfected cells with 10^−6 M ghrelin. […]

[3] = target: T1, human GHS-R 1a; test: as above; type: cell-based; set-up: expressed in transfected cells; host or cells: CHO-K1 Chinese hamster ovary cells (ATCC No. CCL-61), transient transfection by electroporation; details: antagonist dissociation constant, antagonist inhibition curves in the presence of 10^-7 M ghrelin, Cheng-Prusoff equation, Fluo-4 AM

T1 sequence (Q92847 whole entry): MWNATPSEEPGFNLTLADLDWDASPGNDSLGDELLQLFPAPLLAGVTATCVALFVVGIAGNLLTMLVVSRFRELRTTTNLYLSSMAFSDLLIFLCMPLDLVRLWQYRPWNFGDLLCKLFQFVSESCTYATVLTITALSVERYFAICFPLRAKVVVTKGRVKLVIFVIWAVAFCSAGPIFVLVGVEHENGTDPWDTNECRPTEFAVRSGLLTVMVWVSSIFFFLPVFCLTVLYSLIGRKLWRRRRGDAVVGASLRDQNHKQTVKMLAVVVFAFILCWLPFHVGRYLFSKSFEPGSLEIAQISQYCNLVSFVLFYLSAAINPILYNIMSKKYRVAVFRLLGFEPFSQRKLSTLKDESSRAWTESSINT

With `O=C(N[C@H](Cc1c[nH]c2ccccc12)c1nnc(CCc2c[nH]c3ccccc23)n1Cc1cccc2ccccc12)C1CCOCC1` [Compound 20, N-((R)-1-(5-(2-(1H-indol-3-yl)ethyl)-4-((naphthalen-1-yl)methyl)-4H-1,2,4-triazol-3-yl)-2-(1H-indol-3-yl)ethyl)-tetrahydro-2H-pyran-4-carboxamide] the IC50 [1] was 180 nM, the EC50 [2] was 0.6 nM and the activation at 1 µM [2] was 80%.

`COc1ccc(Cn2c(CCc3c[nH]c4ccccc34)nnc2[C@@H](Cc2c[nH]c3ccccc23)NC(=O)c2cccc(CN)c2)cc1` [Compound 13, N-((R)-1-(5-(2-(1H-indol-3-yl)ethyl)-4-(4-methoxybenzyl)-4H-1,2,4-triazol-3-yl)-2-(1H-indol-3-yl)ethyl)-3-(amino-methyl)benzamide] was tested, and the IC50 [1] was 11.1 nM, the EC50 [2] was 2.5 nM and the activation at 1 µM [2] was 70%.

Compound `CC(C)(N)C(=O)N[C@H](Cc1c[nH]c2ccccc12)c1nnc(CCCc2c[nH]c3ccccc23)n1Cc1ccccc1` [Compound 42, N-((R)-1-(5-(3-(1H-indol-3-yl)propyl)-4-benzyl-4H-1,2,4-triazol-3-yl)-2-(1H-indol-3-yl)ethyl)-2-amino-2-methylpropanamide] has an IC50 [1] of 500 nM, an EC50 [2] of 34 nM and an activation at 1 µM [2] of 100%.

`NC1(C(=O)N[C@H](Cc2c[nH]c3ccccc23)c2nnc(CCc3ccccc3)n2Cc2cccc3ccccc23)CCNCC1` [Compound 49, N-((R)-2-(1H-indol-3-yl)-1-(4-((naphthalen-1-yl)methyl)-5-phenethyl-4H-1,2,4-triazol-3-yl)ethyl)-4-aminopiperidine-4-carboxamide] gave an IC50 [1] of 44.5 nM, an EC50 [2] of 10.1 nM and an activation at 1 µM [2] of 100%.

With `COc1ccc(Cn2c(CCc3ccccc3)nnc2[C@@H](Cc2c[nH]c3ccccc23)NC(=O)c2cccc(CN)c2)c(OC)c1` [Compound 6, N-((R)-1-(4-(2,4-dimethoxybenzyl)-5-phenethyl-4H-1,2,4-triazol-3-yl)-2-(1H-indol-3-yl)ethyl)-3-(amino-methyl)benzamide] the IC50 [1] was 204 nM and the activation at 1 µM [2] was 4%.

`O=C(N[C@H](Cc1c[nH]c2ccccc12)c1nnc(CCc2c[nH]c3ccccc23)n1Cc1cccc2ccccc12)c1cnccn1` [Compound 32, N-((R)-1-(5-(2-(1H-indol-3-yl)ethyl)-4-((naphthalen-1-yl)methyl)-4H-1,2,4-triazol-3-yl)-2-(1H-indol-3-yl)ethyl)pyrazine-2-carboxamide] gave an IC50 [1] of 122 nM and an activation at 1 µM [2] of 0%.

`COc1ccc(Cn2c(CCc3c[nH]c4ccccc34)nnc2[C@H](Cc2c[nH]c3ccccc23)NC(=O)c2cnccn2)cc1` [Compound 29, N-((S)-1-(5-(2-(1H-indol-3-yl)ethyl)-4-(4-methoxybenzyl)-4H-1,2,4-triazol-3-yl)-2-(1H-indol-3-yl)ethyl)pyrazine-2-carboxamide] was tested, and the activation at 1 µM [2] was 0% and the Kb [3] was 215 nM.

`O=C(Cc1ccccn1)N[C@H](Cc1c[nH]c2ccccc12)c1nnc(CCc2c[nH]c3ccccc23)n1Cc1cccc2ccccc12` [Compound 30, N-((R)-1-(5-(2-(1H-indol-3-yl)ethyl)-4-((naphthalen-1-yl)methyl)-4H-1,2,4-triazol-3-yl)-2-(1H-indol-3-yl)ethyl)-2-(pyridin-2-yl)acetamide] was tested, and the IC50 [1] was 125 nM and the activation at 1 µM [2] was 0%.

Compound `O=C(N[C@H](Cc1c[nH]c2ccccc12)c1nnc(CCCc2c[nH]c3ccccc23)n1Cc1cccc2ccccc12)C1CCCN1` (stereo partly drawn) [Compound 44, N-((R)-1-(5-(3-(1H-indol-3-yl)propyl)-4-((naphthalen-1-yl)methyl)-4H-1,2,4-triazol-3-yl)-2-(1H-indol-3-yl)ethyl)pyrrolidine-2-carboxamide] has an IC50 [1] of 600 nM, an EC50 [2] of 12 nM and an activation at 1 µM [2] of 100%.

Work on `COc1ccc(Cn2c(CCc3ccccc3)nnc2[C@@H](Cc2c[nH]c3ccccc23)NC(=O)C2(N)CCNCC2)cc1` [Compound 4, N-((R)-1-(4-(4-methoxybenzyl)-5-phenethyl-4H-1,2,4-triazol-3-yl)-2-(1H-indol-3-yl)ethyl)-4-aminopiperidine-4-carboxamide] yielded an IC50 [1] of 6.6 nM, an EC50 [2] of 4.1 nM and an activation at 1 µM [2] of 90%.

`O=C(N[C@H](Cc1c[nH]c2ccccc12)c1nnc(CCc2ccccc2)n1Cc1cccc2ccccc12)c1ccccn1` [Compound 16, N-((R)-2-(1H-indol-3-yl)-1-(4-((naphthalen-1-yl)methyl)-5-phenethyl-4H-1,2,4-triazol-3-yl)ethyl)picolinamide] showed an IC50 [1] of 125 nM and a Kb [3] of 79 nM.

`O=C(N[C@H](Cc1c[nH]c2ccccc12)c1nnc(CCCc2c[nH]c3ccccc23)n1Cc1ccccc1)C1CCNCC1` [Compound 22, N-((R)-1-(5-(3-(1H-indol-3-yl)propyl)-4-benzyl-4H-1,2,4-triazol-3-yl)-2-(1H-indol-3-yl)ethyl)piperidine-4-carboxamide] showed an IC50 [1] of 40 nM, an EC50 [2] of 1.6 nM and an activation at 1 µM [2] of 150%.

Compound `COc1ccc(Cn2c(CCc3ccccc3)nnc2[C@@H](Cc2c[nH]c3ccccc23)NC(=O)c2ccnnc2)c(OC)c1` [Compound 7, N-((R)-1-(4-(2,4-dimethoxybenzyl)-5-phenethyl-4H-1,2,4-triazol-3-yl)-2-(1H-indol-3-yl)ethyl)pyridazine-4-carboxamide] has an activation at 1 µM [2] of 3% and a Kb [3] of 57 nM.

Compound `NC1(C(=O)N[C@H](Cc2c[nH]c3ccccc23)c2nnc(CCc3c[nH]c4ccccc34)n2Cc2cccc3ccccc23)CCNCC1` [Compound 48, N-((R)-1-(5-(2-(1H-indol-3-yl)ethyl)-4-((naphthalen-1-yl)methyl)-4H-1,2,4-triazol-3-yl)-2-(1H-indol-3-yl)ethyl)-4-aminopiperidine-4-carboxamide] has an IC50 [1] of 12 nM, an EC50 [2] of 3.9 nM and an activation at 1 µM [2] of 100%.
